# Earlier results as cited in patent publication US6797704B2, “Systemic delivery of compounds through non-invasive bladder administration” (The Johns Hopkins University, priority 2000, dated 2004).
# B1: recombinant murine interleukin-12: cytokine co-injected with naked DNA in a literature lung tumor study (protein, UniProt P43431 23-215; P43432 23-335, looked up)
# Interleukin-12 subunit alpha: RVIPVSGPARCLSQSRNLLKTTDDMVKTAREKLKHYSCTAEDIDHEDITRDQTSTLKTCLPLELHKNESCLATRETSSTTRGSCLPPQKTSLMMTLCLGSIYEDLKMYQTEFQAINAALQNHNHQQIILDKGMLVAIDELMQSLNHNGETLRQKPPVGEADPYRVKMKLCILLHAFSTRVVTINRVMGYLSSA
# Interleukin-12 subunit beta: MWELEKDVYVVEVDWTPDAPGETVNLTCDTPEEDDITWTSDQRHGVIGSGKTLTITVKEFLDAGQYTCHKGGETLSHSHLLLHKKENGIWSTEILKNFKNKTFLKCEAPNYSGRFTCSWLVQRNMDLKFNIKSSSSSPDSRAVTCGMASLSAEKVTLDQRDYEKYSVSCQEDVTCPTAEETLPIELALEARQQNKYENYSTSFFIRDIIKPDPPKNLQMKPLKNSQVEVSWEYPDSWSTPHSYFSLKFFVRIQRKKEKMKETEEGCNQKGAFLVEKTSTEVQCKGGNVCVQAQDRYYNSSCSKWACVPCRVRS
# Columns and labels:
# [1] = men
# murine lung tumors = details: co-injection with naked DNA; from more than 250
Molecule,systemic absorption following intravesical administration [1],number of primary lung metastases (murine lung tumors)
COc1cccc2c1C(=O)c1c(O)c3c(c(O)c1C2=O)C[C@@](O)(C(=O)CO)C[C@@H]3O[C@H]1C[C@H](N)[C@H](O)[C@H](C)O1 [doxorubicin],minimal,–
B1,–,around 10
